Source: PubChem BioAssay AID1845208 (Molecular Pharmacology Branch, DTP, NCI, 2023)

System: NCI-H196 SCLC complex tumor spheroid viability
Test: Anticancer human tumor NCI-H196 cell line growth inhibition;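 further: spheroids exposed to compounds for 7 days before readout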;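 on viability, T/C: 100% = DMSO vehicle control wells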
Conditions: for IC50: curve of first compound; for viability, T/C: stronger effect = lower value
Excerpt: Multicellular complex tumor spheroid response to DNA repair inhibitors in combination with DNA-damaging drugs
This study explores the anticancer activities of DNA-damaging drugs and inhibitors of DNA damage repair, both as single agents and in combinations. Complex tumor spheroids comprised of malignant cells, endothelial cells and mesenchymal stem cells served as an in vitro model for human solid tumors. This model system incorporates physiologically relevant features and patient-derived or established malignant cell lines with clinically relevant genetic alterations from many tumor types. Twenty-six patient-derived or established malignant cell lines were evaluated representing sarcoma, melanoma, small cell lung cancer (SCLC), non-small cell lung cancer (NSCLC), as well as bladder, ovarian and pancreatic cancers. The concentration ranges selected for each drug and investigational agent were based upon clinically achievable concentrations if the clinical Cmax of the agent was known.
Compounds. The drugs and compounds olaparib (NSC753686), talazoparib (NSC767125), berzosertib (NSC777718), elimusertib (NSC800525), nedisertib (NSC802822), VX-984 (NSC792969), AZD-1390 (NSC803789), temozolomide (NSC362856), topotecan (NSC609699), trabectedin (NSC813783), staurosporine (NSC755774), and gemcitabine (NSC613327) were obtained from the National Cancer Institute (NCI) Developmental Therapeutics Program Chemical Repository. The FDA-approved anticancer drug set is available from the Developmental Therapeutics Program at https://dtp.cancer.gov/organization/dscb/obtaining/available_plates.htm. […] The stock solutions were prepared in dimethyl sulfoxide (DMSO, Sigma-Aldrich, St. Louis, MO, cat. D2650) at 400-fold the tested concentration and stored at -70 degrees C. Prior to their use, the stock solutions were diluted in fresh medium and the final DMSO concentration in the assay was 0.25% (v/v). All drugs and investigational agents were tested over a range starting from a high concentration at or near the clinical Cmax and decreasing in half-log increments. If the clinical Cmax for an agent had not been determined, the highest concentration tested was 10 microM.
Cell Lines. The patient-derived cancer cell (PDC) lines: 156681-154-R-J1-PDC, 283228-195-R-J1-PDC, 287954-098-R-J1-PDC, 292921-168-R-J2-PDC, 349418-098-R-PDC, 425362-245-T-J1-PDC, 556581-035-R-J1-PDC, and BL0293-F563-PDC were received from the NCI Patient-Derived Models Repository (PDMR, https://pdmr.cancer.gov). The established cell lines HS-SY-2 (RRID:CVCL_8719), MPNST, and SYO-1 (RRID:CVCL_7146) were obtained from the Sloan Kettering Institute. The alveolar soft parts sarcoma cell line ASPS-1 (RRID:CVCL_S738) was established at the NCI and grown from internal seed stocks. The following established cell lines were purchased from the American Type Culture Collection (ATCC, Manassas, VA): G-401 (ATCC, cat. CRL-1441, RRID:CVCL_0270), SW982 (ATCC, cat. HTB-93, RRID:CVCL_1734), VA-ES-BJ (ATCC, cat. CRL-2138, RRID:CVCL_1785), NCI-H719 (ATCC, cat. CRL-5837, RRID:CVCL_1582), NCI-H196 (ATCC, cat. CRL-5823, RRID:CVCL_1509), NCI-H841 (ATCC, cat. CRL-5845, RRID:CVCL_1595), NCI-H1618 (ATCC, cat. CRL-5879, RRID:CVCL_1480), NCI-H1876 (ATCC, cat. CRL-5902, RRID:CVCL_1503), DMS 114 (ATCC, cat. CRL-2066; RRID:CVCL_1174), NCI-H211 (ATCC, cat. CRL-5824; RRID:CVCL_1529), and SW 1271 (ATCC, cat. CRL-2177, RRID:CVCL_1716). The small cell lung cancer cell line COR-L88 was purchased from Sigma-Aldrich (cat. 92031917-1VL, RRID:CVCL_1141). The non-small cell lung cancer cell lines NCI-H226 (RRID:CVCL_1544) and NCI-H322M (RRID:CVCL_1557) were established at the NCI and grown from internal seed stocks. Pooled donor human umbilical vein endothelial cells (HUVEC, Lonza, cat. CC-2519) and human mesenchymal stem cells (hMSC, Lonza, cat. PT-2501) were purchased from Lonza (Walkersville, MD).
Cell Culture. All cells were maintained in an incubator at 37 degrees C and 5% CO2 with 95% humidity. […]

Cc1cc(C)c(CNC(=O)c2cc(-c3ccc(CN4CCOCC4)cc3)cc3c2cnn3C2CCCC2)c(=O)[nH]1 + CC[C@@]1(O)C(=O)OCc2c1cc1n(c2=O)Cc2cc3c(CN(C)C)c(O)ccc3nc2-1
IC50 (second compound 0.003 µM): > 10000 nM | IC50 (second compound 0.00949 µM): > 10000 nM | IC50 (second compound 0.03 µM): > 10000 nM | IC50 (second compound 0.0949 µM): > 10000 nM | IC50 (second compound 0.3 µM): > 10000 nM | viability, T/C (second compound 0.003 µM, first compound 0.0316 µM): 99.4% | viability, T/C (second compound 0.003 µM, first compound 0.1 µM): 94.9% | viability, T/C (second compound 0.003 µM, first compound 0.316 µM): 102% | viability, T/C (second compound 0.003 µM, first compound 1 µM): 95.6% | viability, T/C (second compound 0.003 µM, first compound 3.16 µM): 101% | viability, T/C (second compound 0.003 µM, first compound 10 µM): 104% | viability, T/C (second compound 0.00949 µM, first compound 0.0316 µM): 96.5% | viability, T/C (second compound 0.00949 µM, first compound 0.1 µM): 105% | viability, T/C (second compound 0.00949 µM, first compound 0.316 µM): 99.9% | viability, T/C (second compound 0.00949 µM, first compound 1 µM): 88.7% | viability, T/C (second compound 0.00949 µM, first compound 3.16 µM): 94.7% | viability, T/C (second compound 0.00949 µM, first compound 10 µM): 96.5% | viability, T/C (second compound 0.03 µM, first compound 0.0316 µM): 91.8% | viability, T/C (second compound 0.03 µM, first compound 0.1 µM): 96.1% | viability, T/C (second compound 0.03 µM, first compound 0.316 µM): 98.4% | viability, T/C (second compound 0.03 µM, first compound 1 µM): 93% | viability, T/C (second compound 0.03 µM, first compound 3.16 µM): 97.5% | viability, T/C (second compound 0.03 µM, first compound 10 µM): 112% | viability, T/C (second compound 0.0949 µM, first compound 0.0316 µM): 102% | viability, T/C (second compound 0.0949 µM, first compound 0.1 µM): 101% | viability, T/C (second compound 0.0949 µM, first compound 0.316 µM): 108% | viability, T/C (second compound 0.0949 µM, first compound 1 µM): 98.5% | viability, T/C (second compound 0.0949 µM, first compound 3.16 µM): 97% | viability, T/C (second compound 0.0949 µM, first compound 10 µM): 98.6% | viability, T/C (second compound 0.3 µM, first compound 0.0316 µM): 95.6% | viability, T/C (second compound 0.3 µM, first compound 0.1 µM): 87.7% | viability, T/C (second compound 0.3 µM, first compound 0.316 µM): 86.1% | viability, T/C (second compound 0.3 µM, first compound 1 µM): 87.9% | viability, T/C (second compound 0.3 µM, first compound 3.16 µM): 79.9% | viability, T/C (second compound 0.3 µM, first compound 10 µM): 86.9%

Cc1sc2c(c1C)C(c1ccc(Cl)cc1)=NC(CC(=O)Nc1ccc(O)cc1)c1nnc(C)n1-2 (stereo not given) + CC[C@@]1(O)C(=O)OCc2c1cc1n(c2=O)Cc2cc3c(CN(C)C)c(O)ccc3nc2-1
IC50 (second compound 0.003 µM): 613 nM | IC50 (second compound 0.00949 µM): 688 nM | IC50 (second compound 0.03 µM): 656 nM | IC50 (second compound 0.0949 µM): 755 nM | IC50 (second compound 0.3 µM): 373 nM | viability, T/C (second compound 0.003 µM, first compound 0.00949 µM): 98.8% | viability, T/C (second compound 0.003 µM, first compound 0.03 µM): 101% | viability, T/C (second compound 0.003 µM, first compound 0.0949 µM): 86.2% | viability, T/C (second compound 0.003 µM, first compound 0.3 µM): 70.2% | viability, T/C (second compound 0.003 µM, first compound 0.949 µM): 37.8% | viability, T/C (second compound 0.003 µM, first compound 3 µM): 19.2% | viability, T/C (second compound 0.00949 µM, first compound 0.00949 µM): 98.7% | viability, T/C (second compound 0.00949 µM, first compound 0.03 µM): 96.1% | viability, T/C (second compound 0.00949 µM, first compound 0.0949 µM): 86.8% | viability, T/C (second compound 0.00949 µM, first compound 0.3 µM): 76.6% | viability, T/C (second compound 0.00949 µM, first compound 0.949 µM): 39.1% | viability, T/C (second compound 0.00949 µM, first compound 3 µM): 23.7% | viability, T/C (second compound 0.03 µM, first compound 0.00949 µM): 96.1% | viability, T/C (second compound 0.03 µM, first compound 0.03 µM): 84% | viability, T/C (second compound 0.03 µM, first compound 0.0949 µM): 80.3% | viability, T/C (second compound 0.03 µM, first compound 0.3 µM): 64.7% | viability, T/C (second compound 0.03 µM, first compound 0.949 µM): 41.8% | viability, T/C (second compound 0.03 µM, first compound 3 µM): 29.9% | viability, T/C (second compound 0.0949 µM, first compound 0.00949 µM): 98% | viability, T/C (second compound 0.0949 µM, first compound 0.03 µM): 93.6% | viability, T/C (second compound 0.0949 µM, first compound 0.0949 µM): 88.1% | viability, T/C (second compound 0.0949 µM, first compound 0.3 µM): 67.4% | viability, T/C (second compound 0.0949 µM, first compound 0.949 µM): 46% | viability, T/C (second compound 0.0949 µM, first compound 3 µM): 32.3% | viability, T/C (second compound 0.3 µM, first compound 0.00949 µM): 92.3% | viability, T/C (second compound 0.3 µM, first compound 0.03 µM): 92.8% | viability, T/C (second compound 0.3 µM, first compound 0.0949 µM): 78.9% | viability, T/C (second compound 0.3 µM, first compound 0.3 µM): 49.8% | viability, T/C (second compound 0.3 µM, first compound 0.949 µM): 40.1% | viability, T/C (second compound 0.3 µM, first compound 3 µM): 24.4%
